This assay concerns the target T1, GST P1-1 (Homo sapiens, UniProt P09211).
T1 construct: purchased Sigma-Aldrich
Briefly: High-throughput GST P1-1 inhibition assay (384-well screen, CDNB/GSH). Type of assay: biochemical. The conditions noted are these: compound 10 μM; score 0 = negative control (DMSO), 1 = positive control (EA 50 μM); average of duplicate. Here is the method: Each drug compound was added to the respective well at a volume of 80 nL of 10 mM stock solution in DMSO, yielding a final compound concentration of 10 μM and a final DMSO concentration of 0.1%. Each plate’s first and last two columns were used as negative (no compound added – 80 nL per well of DMSO) and positive (80 nL of EA added with a final concentration of 50 μM) controls, respectively. The Gyger Certus Flex dispenser was set up using a freshly prepared 1 mM of GSH and 20 nM of GST P1-1, pH 7.4, in one syringe and 8 mM CDNB solution in pure ethanol in the other syringe. Into each well 80 μL of GST-GSH solution was dispensed and incubated at 25°C for 20 minutes before the reaction was initiated by the addition of 4 μL of CDNB solution. The plates were incubated for 2 h in the dark at 25°C and then the absorbance was of each well recorded on a BioTek Synergy NEO HTS multimode plate reader (Agilent®) at a wavelength of 340 nm.
The z’factor was calculated for each plate according to Zhang et al.. The Z-factor is a dimensionless, simple statistical characteristic for each HTS assay. This provides a valuable tool for the comparison and assessment of the quality of assays, and can be utilized in assay optimization and validation. For each plate, the concentration of product was normalized by assigning a score of 0 (0%) to the negative control (average of maximal concentration of product measured in the presence of enzyme without any inhibitor) and a score of 1 (100%) was assigned to the positive control (average minimal concentration of product measured in the presence of enzyme with the reference inhibitor, i.e., EA). The experiment was performed in duplicate and the score for each drug compound was calculated as an average ± standard deviation. […] An internal laboratory information management system (LIMS) was used for basic data processing, management, visualization, and statistical hit validation.

T1 sequence (P09211 2-210 limits assumed): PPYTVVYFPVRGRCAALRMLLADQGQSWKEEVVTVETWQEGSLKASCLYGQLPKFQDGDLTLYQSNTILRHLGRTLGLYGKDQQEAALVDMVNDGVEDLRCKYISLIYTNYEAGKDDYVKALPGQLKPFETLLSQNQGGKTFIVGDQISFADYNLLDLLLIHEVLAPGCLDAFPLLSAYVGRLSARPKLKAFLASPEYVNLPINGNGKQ

With `CC(C)=CCC/C(C)=C/CC/C(C)=C/CSc1ccccc1C(=O)O` [Salirasib], the Score was 0.717. For `O=C(O)C1(c2ccc(-c3ccc(Cl)c(Cl)c3)c(F)c2)CC1` [CHF5074] the value was 0.911. As to `O=c1c(-c2ccccc2)c1-c1ccccc1` [Diphencyprone], the Score is on record as 0.744. Regarding `CC1=C(/C=C/C(=C/C=C/C(C)=C/C(=O)O)c2ccc(C)cc2)C(C)(C)CCC1` [SR-11302], the Score was found to be 0.733. As for `Cc1cc(-c2ccc(/N=N/c3ccc4c(S(=O)(=O)O)cc(S(=O)(=O)O)c(N)c4c3O)c(C)c2)ccc1/N=N/c1ccc2c(S(=O)(=O)O)cc(S(=O)(=O)O)c(N)c2c1O` [Evans Blue], the figure is 0.783.

As for `CC1=C(CCC(=O)O)c2cc3[nH]c(cc4nc(cc5[nH]c(cc1n2)c(C)c5C(C)O)C(C)=C4C(C)O)c(C)c3CCC(=O)O` (stereo not drawn) [Hematoporphyrin], the Score is recorded as 0.758. In the case of `N[C@@H](Cc1cc(-c2ccc(Cl)cc2Cl)cc(CP(=O)(O)O)c1O)C(=O)O` [SDZ-220-040], the Score is on record as 0.871. Consider `Oc1c(Cl)cc(Cl)cc1Sc1cc(Cl)cc(Cl)c1O` [Bithionol], for which the Score turned out to be 1.007.

On to `O=C1OC2(c3cc(I)c(O)c(I)c3Oc3c2cc(I)c(O)c3I)c2c(Cl)c(Cl)c(Cl)c(Cl)c21` [Rose-bengal-lactone], for which the Score was found to be 0.937. As for `CC[C@@H](C(=O)[C@@H](C)[C@@H](O)[C@H](C)CCc1ccc(C)c(O)c1C(=O)O)[C@H]1O[C@](CC)([C@H]2CC[C@](O)(CC)[C@H](C)O2)C[C@@H]1C` [Lasalocid], the figure is 0.863. For `Cc1c(S(=O)(=O)O)oc2c1C(=O)C(=O)c1c-2ccc2c1CCCC2(C)C` [Tanshinone IIA sulfonate (sodium), Tanshinone IIA sulfonate] the value was 0.981; for `COc1cc(C[C@H](C)[C@H](C)Cc2ccc3c(c2)OCO3)ccc1O` [Macelignan], 0.803. As for `O=C(Nc1ccc(Cl)cc1)Nc1ccc(Cl)c(Cl)c1` [Triclocarban], the figure is 0.702; as for AS-2034178, 0.982; as for `O=C(/C=C/c1ccccc1)NC(NC(=S)Nc1ccc(Cl)cc1)C(Cl)(Cl)Cl` (stereo not drawn) [Sal003], 0.865. As for `O=C(Nc1cccc(C(F)(F)F)c1)Nc1ccc(Br)cc1-c1nn[nH]n1` [NS-3623], the Score is 0.752. For `CC(C)c1cccc2c(-c3ccccc3)cc(-c3ccc(-c4ccc(C(=O)O)cc4)[nH]3)nc12` [ER-50891] the value was 0.927; for `CCCCCCCCCCCCc1ccc(S(=O)(=O)Nc2nncs2)cc1` [PHT-427], 0.696. For `CC(C)(C)c1ccc(CN2CCN(C(c3ccccc3)c3ccc(Cl)cc3)CC2)cc1` (stereo not drawn) [Buclizine] the value was 0.694; for `O=C1C=Cc2cc(Br)ccc2C1=O` [Bonaphthone], 0.770; for `CCCCCC/C=C/C=C\CCCCCCCC(=O)O` [Cis-9,trans-11-Conjugated-linoleic-acid], 0.796. Regarding `CCN(CC)c1ccc(C(=C2C=CC(=[N+](CC)CC)C=C2)c2ccccc2)cc1` [Brilliant-green], the Score came out at 0.783. For `Cc1noc(-c2ccc(CSCCC(=O)O)cc2)c1NC(=O)OC(C)c1ccccc1Cl` (stereo not drawn) [Ki16425] the value was 0.710; for `CC(C)c1onc(-c2c(Cl)cccc2Cl)c1COc1ccc(/C=C/c2cccc(C(=O)O)c2)c(Cl)c1` [GW 4064], 0.702; for `Oc1ccc(Nc2nc(-c3ccc(Cl)cc3)cs2)cc1` [SKI II], 0.694. As for `CC1=NN(c2ccccc2)C(=O)C1` [Edaravone], the figure is 0.958; as for `CC1(C)CC[C@]2(NC(=O)C(C)(F)F)CC[C@]3(C)[C@H](C(=O)C=C4[C@@]5(C)C=C(C#N)C(=O)C(C)(C)[C@@H]5CC[C@]43C)[C@@H]2C1` [RTA-408], 0.807; as for `Cc1cc(F)c(Nc2ncnc3cc(OCc4ccccc4)ccc23)cc1O.Cl` [ZM323881 (hydrochloride)], 0.946. On to `CCOC(=O)Nc1cc(-c2ccc(C)c(NS(C)(=O)=O)c2)nn2c(C)nnc12` [Bromosporine], for which the Score is listed as 0.801. On to `Cc1cc(=O)n(-c2ccccc2)[nH]1` [N-demethylantipyrine], for which the Score worked out at 1.019. Turning to `CC/C=C\C/C=C\C/C=C\C/C=C\C/C=C\C/C=C\CCC(=O)O` [Docosahexaenoic Acid], the Score is listed as 0.821. As for `NC[C@@](O)(c1ccc(Cl)cc1)c1ccc(-c2cn[nH]c2)cc1` [AT13148], the figure is 0.738; as for `CC1(C)CCC(C)(C)c2cc(Cn3cccn3)c(/C=C/c3ccc(C(=O)O)cc3)cc21` [Palovarotene], 0.763; as for `O=S(=O)(O)c1ccc(-c2c3nc(c(-c4ccc(S(=O)(=O)O)cc4)c4ccc([nH]4)c(-c4ccc(S(=O)(=O)O)cc4)c4nc(c(-c5ccc(S(=O)(=O)O)cc5)c5ccc2[nH]5)C=C4)C=C3)cc1` [TPPS4], 0.809. As to `COc1cc(-c2ccc(N=Nc3ccc4c(S(=O)(=O)[O-])cc(S(=O)(=O)[O-])c(N)c4c3O)c(OC)c2)ccc1N=Nc1ccc2c(S(=O)(=O)[O-])cc(S(=O)(=O)[O-])c(N)c2c1O.[Na+].[Na+].[Na+].[Na+]` [Chicago sky blue 6B], the Score amounted to 0.863. As for `O=C1OC2(c3cc(I)c(O)c(I)c3Oc3c2cc(I)c(O)c3I)c2c(Cl)c(Cl)c(Cl)c(Cl)c21` [Rse-bengal], the figure is 0.996; as for `CC#C[C@@H](CC(=O)[O-])c1ccc(OCc2cccc(-c3ccc(C(F)(F)F)cc3)c2)cc1.CC#C[C@@H](CC(=O)[O-])c1ccc(OCc2cccc(-c3ccc(C(F)(F)F)cc3)c2)cc1.O.[Ca+2]` [AMG 837 (calcium hydrate)], 0.783.

For the compound `O=C1C(CC[S+]([O-])c2ccccc2)C(=O)N(c2ccccc2)N1c1ccccc1` (stereo not drawn) [Sulfinpyrazone], the Score is on record as 0.823. In the case of `O=C1OC2(c3ccccc31)c1cc(I)c(O)c(I)c1Oc1c2cc(I)c(O)c1I` [Erythrosine], the Score stood at 0.828. As for `O=[N+]([O-])/C=C/c1ccc2c(c1)OCO2` [MNS], the figure is 0.850. As to `COc1cc(C(=O)NS(=O)(=O)c2ccccc2C)ccc1Cc1cn(C)c2ccc(NC(=O)OC3CCCC3)cc12` [Zafirlukast], the Score turned out to be 0.801. For `O=C(NCc1ccc(Oc2ccccc2)cc1)c1nc(-c2cc(Br)c(O)c(Br)c2)no1` [IOWH-032], the Score is recorded as 0.901.

In the case of `C=CC1=C(C)c2cc3[nH]c(cc4nc(cc5[nH]c(cc1n2)c(C)c5CCC(=O)O)C(CCC(=O)O)=C4C)c(C)c3C=C` [Protoporphyrin IX], the Score is given as 0.914. For `O=C(O)C(Cc1ccccc1[N+](=O)[O-])=NNc1nc(-c2ccc(Cl)c(Cl)c2)cs1` (mixture of isomers) [4EGI-1], the Score amounted to 0.730. In the case of `Oc1ccc2ccccc2c1SSc1c(O)ccc2ccccc12` [IPA-3], the Score amounted to 0.881. For the compound `O=C(O)c1ccc(-c2ccc3cc(O)c(C45CC6CC(CC(C6)C4)C5)cc3c2)cc1` [CD-1530], the Score amounted to 0.979. In the case of `Oc1cccc(-c2c3nc(c(-c4cccc(O)c4)c4ccc([nH]4)c(-c4cccc(O)c4)c4nc(c(-c5cccc(O)c5)c5ccc2[nH]5)CC4)C=C3)c1` [Temoporfin], the Score is reported as 0.699. As for `CC(C)(c1ccc(OCC2CO2)cc1)c1ccc(OCC2CO2)cc1` (stereo not drawn) [BADGE], the figure is 0.715. As for TC-I-2000, the figure is 0.729; as for `CCOc1c2c(c(OCC)c3ccccc13)C(=O)N(c1ccc(CC(=O)NS(=O)(=O)c3ccccc3)cc1)C2` [GW627368], 0.854. As for `C=CC(=O)c1ccc2ccccc2c1` [JAK3-inhibitor-V], the Score worked out at 0.817.

On to `O=C1c2c(O)cccc2Cc2cccc(O)c21` [Anthralin], for which the Score came to 0.694. In the case of `O=C([O-])c1ccccc1-c1c2cc(Br)c(=O)cc-2oc2[c]([Hg+])c([O-])c(Br)cc12.[Na+].[Na+].[OH-]` [Merbromin], the Score was 0.993. With `O=C(O)C(=O)c1cn(Cc2ccccc2)c2ccc(-c3ccc(OC(F)(F)F)cc3)cc12` [Tiplaxtinin], the Score is recorded as 0.836.

The values above are taken from paper PMC12289066, “Identification of glutathione transferase (GST P1) inhibitors via a high-throughput screening assay and implications as alternative treatment options for breast cancers” (PLOS One, 2025).
